# Data published in patent US20050037446A1, “Agents that recognize src when phosphorylated at serine 17” (priority 2001, published 2005).
# Assays:
# ERK1/2 = ERK1/2 phosphorylation Western blot, NIH3T3 cells; assay type: cell-based; settings: inhibition of SFKs
# Procedure: To determine the role of SFKs in cAW's antagonism of extracellular signal regulated kinase (ERK) activation, the following methods were used. NIH3T3 cells were incubated in the presence or absence of either H89 or PP2 for 20 minutes, pretreated with Forskolin for five minutes, and then stimulated with 100 ng/ml, epidermal growth factor (EGF, Sigma), or 100 ng/ml platelet-derived growth factor (PDGF, Sigma) for five minutes, as described in EXAMPLE 1. Cell lysates were analyzed by Western blot for phosphorylation of endogenous ERK1/2 or total ERK2. To detect phosphorylation of endogenous ERK1/2, phosphorylation-specific ERK antibodies (PERK) that recognize phosphorylated ERK1 (pERK1) and ERK2 (pERK2), at residues threonine 183 and tyrosine 185 were used (New England Biolabs, Beverly, Mass.).
# Raf-1 and Rap1 = assay: Association of Raf-1 with His-Rap1 (Ni-NTA pull-down), NIH3T3 cells; assay type: cell-based; settings: Forskolin-stimulated NIH3T3 cells
# Procedure: NIH3T3 cells were transfected using Lipofectamine (see EXAMPLE 1) with polyhistidine-tagged Rap1 along with CBR or Cb1-ct (see EXAMPLE 2) as previously described (Schmitt and Stork, Mol. Cell. Biol. 21:3671-83, 2001; Schmitt and Stork, J. Biol. Chem. 275:25342-50,2000). Cells were left untreated or stimulated with Forskolin, as described in EXAMPLE 1. Subsequently, cells were lysed in ice-cold buffer containing 1% NP40, 10 mM Tris, pH 8.0, 20 mM NaCl, 30 mM MgCl2, 1 mM PMSF, and 0.5 mg/ml aprotinin and supernatants prepared by low speed centrifugation. Transfected His-Rap1 proteins were precipitated from supernatants containing equal amounts of protein using Ni-NTA agarose (Qiagen Inc., Chatswoth, Calif.) and washed with 20 mM imidazole in lysis buffer and eluted with 500 mM imidazole and 5 mM EDTA in phosphate-buffered saline. The eluates containing His-Rap1 proteins were separated on SDS-PAGE, blotted onto PVDF membranes, and Raf-1 proteins detected by Western blotting using anti-Raf-1 antibodies (Santa Cruz Biotechnology Inc.).
# Rap1 = Rap1 activation assay in Src++ and SYF fibroblasts; assay type: cell-based, mouse
# Procedure: The Rap1 activation affinity assay was performed as follows. A GST fusion protein of the Rap1-binding domain of RalGDS (GST-RalGDS, Dr. Bos, Utrecht University, The Netherlands) was expressed in E. coli following induction by isopropyl-1thio-β-D-galactopyranoside. Active Rap1 was isolated as previously described (Franke et al., EMBO J. 16:252-9, 1997). Briefly, equivalent amounts of supernatants (500 μg) were incubated with GST-RalGDS-Rap1 binding domain coupled to glutathione beads. Following a one hour incubation at 4° C., beads were pelleted and rinsed threes times with ice-cold lysis buffer. The protein was eluted from the beads using 2× Laemmli buffer and applied to a 12% SDS-polyacrylamide gel. […] Proteins were detected using enhanced chemiluminescence. […]
# Following selection, SYF cells were left untreated or stimulated with Forskolin in the presence or absence of H89 or PP2. Cells were lysed in ice-cold lysis buffer and the lysates analyzed by Western blot for phosphorylation of myc-ERK2 as described above. […]
# SYF cells were co-transfected with Flag-Rap1 and either vector, Flag-Src, or Flag-SrcS 17A and stimulated with Forskolin as described in the above examples. Cell lysates were examined for Rap1 activation using the method described in EXAMPLE 1 or analyzed by Western blot to identify Flag-containing proteins. […]
Compound,Effect on EGF's or PDGF's activation of ERKs (ERK1/2),Effect on Forskolin's inhibition of ERKs (ERK1/2),Effect on association between Raf-1 and Rap1 (Raf-1 and Rap1),Rap1 activation by agonist (Rap1; SYF cells),Rap1 activation by agonist (Rap1; Src++ cells)
"CC(C)(C)n1nc(-c2ccc(Cl)cc2)c2c(N)ncnc21 [PP2, 4-amino-5-(4-chlorophenyl)-7-(t-butyl)pyazolo[3,4-d]pyrimidine]",no observable effect,prevented Forskolin's inhibition of ERKs,blocked,–,–
CC(C)NCC(O)c1ccc(O)c(O)c1 (centres unmarked) [isoproterenol],–,–,–,absent,retained
